# Source: article PMC7144376, “Antiviral Effects of Novel 2-Benzoxyl-Phenylpyridine Derivatives” (Molecules, 2020)
# Columns and labels:
# Format in all cases: cell-based, Coxsackievirus B3
# CVB3 RNA = CVB3 RNA by quantitative reverse transcription-PCR; details: 160 μM, Hep-2 cells, 32 h pi, normalized to GAPDH
# Description: (§1) To further investigate the effects of these compounds on CVB3 replication, we analyzed the efficacy of representative compound, W13, in inhibiting viral progeny yield, RNA synthesis, and protein translation. Infected cells treated with or without 160 μM W-13 were harvested after 4 h, 8 h, 16 h and 32 h, viral progeny yields were determined using the Reed–Muench method, and quantitative reverse transcription polymerase chain reaction analysis of harvested cells were conducted, to evaluate the relative amounts of viral RNA. […] Figure 5b illustrates the efficacy of W-13 in inhibiting viral RNA synthesis. Viral RNA became detectable in the virus control group during the first 4 h pi, followed by significant increases at subsequent time points.
# Figure 5 Effect of W13 on CVB3 replication in Hep-2 cells. Hep-2 cells infected with 100 TCID50 CVB3 were incubated in the absence or presence of 160 µM W13 and harvested at the indicated times post-infection. (a) Progeny virus yields were determined. (b) Viral RNA levels were measured by analysis of total RNA. GAPDH was amplified and the resulting data was used for normalization. […] (c) CVB3 protein levels were determined by indirect immunofluorescence, using the mouse anti-coxsackie virus B3 monoclonal antibody, MAB948, and an alexa-fluor-488-conjugated affiniPure goat anti-mouse IgG (H + L), after incubation with W13 for 24 h. […]
# CVB3 protein = CVB3 protein by indirect immunofluorescence; details: 160 μM, Hep-2 cells
# Description: Figure 5 Effect of W13 on CVB3 replication in Hep-2 cells. Hep-2 cells infected with 100 TCID50 CVB3 were incubated in the absence or presence of 160 µM W13 and harvested at the indicated times post-infection. (a) Progeny virus yields were determined. (b) Viral RNA levels were measured by analysis of total RNA. GAPDH was amplified and the resulting data was used for normalization. Values represent the means ± SDs of three independent experiments. * p < 0.05; ** p < 0.01, compared with the virus control group. (c) CVB3 protein levels were determined by indirect immunofluorescence, using the mouse anti-coxsackie virus B3 monoclonal antibody, MAB948, and an alexa-fluor-488-conjugated affiniPure goat anti-mouse IgG (H + L), after incubation with W13 for 24 h. Nuclei were stained with DAPI and green foci indicate the presence of CVB3 protein.
# The influence of W13 on CVB3 replication was also determined at the translational level. […] Then, intracellular viral protein was detected by indirect immunofluorescence analysis after incubation for 8, 24, and 36 h.
# Hep-2 cells (1 × 10^5) were seeded in 24-well plates and incubated overnight. […] After the plates had been washed three times with 0.1% Tween-20 in PBS, they were incubated with the appropriate Alexa-Fluor-488-labeled secondary antibody (Invitrogen) and fluorescence evaluated using an OLYMPUS IX73 microscope (Tokyo, Japan).
# CVB3 = experiment: Time course of CVB3 progeny yield in Hep-2 cells; details: 160 μM, 32 h pi
# Description: as §1, with “Viral RNA became detectable in the virus control group during the first 4 h pi, followed by significant increases at subsequent time points.” left out
# Figure 5 Effect of W13 on CVB3 replication in Hep-2 cells. […] (a) Progeny virus yields were determined. (b) Viral RNA levels were measured by analysis of total RNA. […] (c) CVB3 protein levels were determined by indirect immunofluorescence, using the mouse anti-coxsackie virus B3 monoclonal antibody, MAB948, and an alexa-fluor-488-conjugated affiniPure goat anti-mouse IgG (H + L), after incubation with W13 for 24 h. […]
# CVB3 or ADV7 suspensions, serially diluted 10-fold with DMEM containing 2% FBS (DMEM maintenance medium, MM), were inoculated to Hep-2 or HeLa cells in 96-well plates. […] After 2 days, infected cells were monitored for CPEs and virus titers were calculated using the Reed–Muench method.
smiles,measurement,setting,value
Cc1ccc(OC(=O)C(C)(C)C)c(-c2ccccn2)c1 [W13],reduction of viral RNA copy numbers,CVB3 RNA,approximately 500 fold
same,viral protein synthesis (immunofluorescence foci),CVB3 protein,suppressed
same,reduction in viral replication (progeny virus titer),CVB3,~3.0 log
